Source: patent US7312344B2, “Dimeric isoflavones” (Novogen Research Pty Limited, priority 2001, dated 2007)
Where two headings read alike, the source gives them in different places.

What was measured:
[1] = target: T1, recombinant human estrogen receptors-alpha (ER-α) (Homo sapiens, UniProt P03372); test: Estrogen receptor competitive binding assay (fluorescence polarization kit), ER-α
T1 construct: purchased
T1 sequence (P03372 1-595): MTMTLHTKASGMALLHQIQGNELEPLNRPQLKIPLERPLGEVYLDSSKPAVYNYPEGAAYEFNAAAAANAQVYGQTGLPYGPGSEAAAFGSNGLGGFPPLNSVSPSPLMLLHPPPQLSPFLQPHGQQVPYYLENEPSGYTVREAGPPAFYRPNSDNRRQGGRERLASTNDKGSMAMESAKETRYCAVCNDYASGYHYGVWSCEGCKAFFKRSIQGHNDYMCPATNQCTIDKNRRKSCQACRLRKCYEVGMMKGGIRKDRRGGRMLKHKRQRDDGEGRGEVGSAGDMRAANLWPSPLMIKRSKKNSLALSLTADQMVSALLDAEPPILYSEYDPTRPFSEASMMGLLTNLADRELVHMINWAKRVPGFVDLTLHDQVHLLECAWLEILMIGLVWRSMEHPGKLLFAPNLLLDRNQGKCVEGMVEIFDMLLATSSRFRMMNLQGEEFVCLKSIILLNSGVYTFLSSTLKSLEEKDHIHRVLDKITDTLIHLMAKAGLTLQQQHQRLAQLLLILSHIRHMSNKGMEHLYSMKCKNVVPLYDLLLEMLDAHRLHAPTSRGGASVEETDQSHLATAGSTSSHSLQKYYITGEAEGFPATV
Description: (§1) The ability of the tetraphenolic dimer (Structure 3) and tetraacetoxy dimer (Structure 2) to interact with estrogen receptor alpha and beta was determined using a commercially available estrogen receptor binding kit. This kit employs a competitive binding assay to determine the relative binding affinity of test compounds for recombinant human estrogen receptors-alpha (ER-α) and beta (ER-β). […] The complex is then added to decreasing concentrations of competitor test compounds. The shift in polarization in the presence of test compound is used to determine the relative affinity of test compounds for the estrogen receptor.

[2] = target: T2, recombinant human estrogen receptor beta (ER-β) (Homo sapiens, UniProt Q92731); test: Estrogen receptor competitive binding assay (fluorescence polarization kit), ER-β
T2 construct: purchased
Description: as §1

breast (MCF-7) = test: Cell cytotoxicity assay (MTT), MCF-7; type: cell-based, human
Description: (§2) The anticancer potential of the tetraphenolic dimer (Structure 3) and the tetraacetoxy dimer (Structure 2) was assessed using a panel of human tumour cell lines, including glioma (C6), prostate (PC3), breast (MCF-7), soft tissue (Kym-1) and lung (NCI-H23 and NCI-H460). The cell cytotoxicity assay was conducted as per the method of Alley et al., 1988. Cell lines are exposed to varying concentrations of test compound for a fixed time. At the conclusion of the assay, the viability of the cell population is determined using the hydrogen acceptor reagent 3-(4,5-dimethylthiazol-2-yl)-2,5 diphenyltetrazolium bromide (MTT). The concentration of compound required to inhibit 50% of cell growth in comparison to a control (IC50) is an indicator of effectiveness of the compound. (i.e. the lower the concentration of compound required to inhibit 50% of normal cell proliferation, the more efficacious).

prostate (PC3) = test: Cell cytotoxicity assay (MTT), PC3; type: cell-based, human; details: read-out: Cell Line IC50 PC3
Description: as §2

lung (NCI-H23) = test: Cell cytotoxicity assay (MTT), NCI-H23; type: cell-based, human; details: read-out: Cell Line IC50 NCI-H23
Description: as §2

glioma (C6) = test: Cell cytotoxicity assay (MTT), C6 glioma; type: cell-based, human; details: Rattus norvegicus, read-out: Cell Line IC50 C6 Glioma
Description: as §2

soft tissue (Kym-1) = test: Cell cytotoxicity assay (MTT), Kym-1; type: cell-based; details: Homo sapiens, read-out: Cell Line IC50 Kym-1
Description: as §2

lung (NCI-H460) = test: Cell cytotoxicity assay (MTT), NCI-H460; type: cell-based; details: Homo sapiens, read-out: Cell Line IC50 NCI-H460
Description: as §2

T2 sequence (Q92731 whole entry): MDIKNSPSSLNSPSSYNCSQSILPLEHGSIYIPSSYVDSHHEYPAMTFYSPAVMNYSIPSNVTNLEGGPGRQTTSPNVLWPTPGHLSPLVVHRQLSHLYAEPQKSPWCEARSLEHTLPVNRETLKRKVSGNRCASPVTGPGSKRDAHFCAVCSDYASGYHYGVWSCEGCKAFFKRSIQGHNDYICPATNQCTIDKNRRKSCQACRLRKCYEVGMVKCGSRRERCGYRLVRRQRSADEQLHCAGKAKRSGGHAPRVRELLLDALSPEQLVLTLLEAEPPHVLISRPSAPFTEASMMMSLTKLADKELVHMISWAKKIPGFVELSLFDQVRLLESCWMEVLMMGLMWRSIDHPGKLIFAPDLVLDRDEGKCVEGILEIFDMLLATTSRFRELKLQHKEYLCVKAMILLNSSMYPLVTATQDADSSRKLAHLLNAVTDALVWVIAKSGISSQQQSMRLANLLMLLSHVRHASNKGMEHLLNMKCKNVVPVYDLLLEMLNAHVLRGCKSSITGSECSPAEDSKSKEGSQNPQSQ

EC50 ([1]; read-out: concentration required to displace 50% of bound fluorescent estrogen ligand (EC50), ER-alpha) [µM] | EC50 ([2]; read-out: concentration required to displace 50% of bound fluorescent estrogen ligand (EC50), ER-beta) [µM] | Compound | binding to ER-α (in words) [1] | binding to ER-β (in words) [2] | IC50 (breast (MCF-7); read-out: Cell Line IC50 MCF-7) [µM] | IC50 (prostate (PC3)) [µM] | IC50 (lung (NCI-H23)) [µM] | IC50 (breast (MCF-7); Homo sapiens, MCF7, read-out: Cell Line IC50 MCF-7) [µM] | IC50 (prostate (PC3); Homo sapiens) [µM] | IC50 (glioma (C6)) [µM] | IC50 (soft tissue (Kym-1)) [µM] | IC50 (lung (NCI-H460)) [µM] | IC50 (lung (NCI-H23); Homo sapiens) [µM]
 |  | CC(=O)Oc1ccc(C2=Cc3cc(C4c5ccc(OC(C)=O)cc5OCC4c4ccc(OC(C)=O)cc4)c(OC(C)=O)cc3OC2)cc1 (stereo not shown) [Structure 2, Tetraacetoxy 6-(4-(isoflavan-4′,7-diol))-isoflav-3-ene-4′,7-diol] | did not bind | did not bind | 10 ± 5 | 6 | 7.3 |  |  |  |  |  | 
0.35 ± 0.05 | 0.37 ± 0.05 | Oc1ccc(C2=Cc3cc(C4c5ccc(O)cc5OCC4c4ccc(O)cc4)c(O)cc3OC2)cc1 (stereo not shown) [Structure 3, 6-(4-(Isoflavan-4′,7-diol))-isoflav-3-ene-4′,7-diol] |  |  |  |  |  | 18 ± 2 | 13.5 | 17.5 | 3.2 | 14.4 | 13.5
